Series [1] in a line: Maximum flux through silicone membranes from mineral oil (Franz diffusion cells).
Details of series [2]: method as in Wenkers and Lippold 1999 [6]. The following applies: log maximum flux through human skin in vivo from mineral oil; ref Wenkers and Lippold 1999 [6]; cited from earlier work.
A short description of series [3]: Calculated log partition coefficients. In kind it is physicochemical. The following applies: data from Wenkers and Lippold 1999; for log KMO:1.0: mineral oil:acidic water (pH 1.0) partition coefficient, calculated from log KOCT:1.0 − log KOCT:MO; for log KOCT:MO: octanol:mineral oil partition coefficient, calculated from log KOCT:1.0 − log KMO:1.0.
Series [4] is described as follows: Calculated solubilities in octanol, pH 7.4 buffer and acidic water. The class given is physicochemical. The following applies: data from Wenkers and Lippold 1999; for log SOCT: solubility in octanol, calculated from log KOCT:MO and log SMO; for log S7.4: solubility in pH 7.4 phosphate buffer, calculated from log SOCT − log KOCT:7.4; for log S1.0: solubility in acidic water (pH 1.0), calculated from log SMO − log KMO:1.0. The procedure:
Experimental solubility in mineral oil from Wenkers and Lippold was converted to units of mM from mg/dL. The values of log S7.4 were calculated from log SOCT − log KOCT:7.4, the values of log SOCT were calculated from log KOCT:MO + log SMO, and the values of log S1.0 were calculated from log SMO − log KMO:1.0.

Series [5] is described as follows: Stability in pH 7.1 phosphate buffer (receptor phase). The class given is physicochemical. The note with it: measured after 24 h as salicylic acid. As to the method:
Molar extinction coefficients for the compounds in pH 7.1 phosphate buffer, the receptor phase, were determined experimentally. Each compound was initially dissolved in a small volume of acetonitrile (except Diflunisal, which was dissolved in ethanol). These solutions were diluted further with the buffer solution to concentrations that would produce accurate UV absorptions. A plot of absorbance versus concentration produced the slope in units of M^−1. There was only one instance of a major variation in this procedure. […] Thus, the molar extinction coefficient and the concentrations measured after 24 h were that of salicylic acid.

For series [6] the following is noted: pH 7.1.
[7] abbreviates: log maximum flux through silicone membrane from mineral oil suspension, 32 °C, pH 7.1 phosphate buffer receptor phase, measured directly.

Like-named read-outs stand apart in the source and are kept apart here.

Take `CC(=O)Oc1ccccc1C(=O)O` [Aspirin]: in series [1] (setting [7]), the “log JMPMO” value is −1.18 µmol cm^−2 h^−1. For the same compound, the “log JMHMO” value in series [2] was −1.72 µmol cm^−2 h^−1. In addition, in series [3], the “log KMO:1.0” value is listed as −2.02 and the “log KOCT:MO” value was 3.96. Moreover, in series [4], the “log SOCT” value is recorded as 3.14 mM and the “log S7.4” value is reported as 5.18 mM. For the same compound, the “stability in phosphate buffer” value in series [5] is “readily hydrolyzed to salicylic acid and acetic acid”.
For `O=C(O)Cc1ccccc1Nc1c(Cl)cccc1Cl` [Diclofenac], the “log JMPMO” value in series [1] (setting [7]) was −1.91 µmol cm^−2 h^−1. Moreover, the “log JMHMO” value in series [2] is recorded as −2.89 µmol cm^−2 h^−1. In series [3], the “log KMO:1.0” value is 1.41 and the “log KOCT:MO” value was 2.91. Further, in series [4], the “log S1.0” value was −2.43 mM, the “log SOCT” value is recorded as 1.89 mM and the “log S7.4” value is given as −0.09 mM.
As for `O=C(O)c1cc(-c2ccc(F)cc2F)ccc1O` [Diflunisal], the “log JMPMO” value in series [1] (setting [7]) was −1.69 µmol cm^−2 h^−1. Further, the “log JMHMO” value in series [2] is reported as −2.44 µmol cm^−2 h^−1. In series [3], the “log KMO:1.0” value is 0.88 and the “log KOCT:MO” value is recorded as 3.36. In addition, in series [4], the “log S1.0” value was −2.05 mM, the “log SOCT” value was 2.19 mM and the “log S7.4” value is given as 1.61 mM.
For `O=C(O)c1ccccc1Nc1cccc(C(F)(F)F)c1` [Flufenamic Acid], the “log JMPMO” value in series [1] (setting [7]) is recorded as −0.60 µmol cm^−2 h^−1. In addition, the “log JMHMO” value in series [2] is given as −1.86 µmol cm^−2 h^−1. Further, in series [3], the “log KMO:1.0” value was 2.74 and the “log KOCT:MO” value was 1.93. For the same compound, in series [4], the “log S1.0” value is recorded as −2.21 mM, the “log SOCT” value is recorded as 2.46 mM and the “log S7.4” value is given as 0.31 mM.
With `CC(C)Cc1ccc(C(C)C(=O)O)cc1` (centres unmarked) [Ibuprofen], the “log JMPMO” value in series [1] (setting [7]) stood at 0.34 µmol cm^−2 h^−1. Further, in series [2], the “log JMHMO” value was −0.25 µmol cm^−2 h^−1. Moreover, in series [3], the “log KMO:1.0” value was 3.06 and the “log KOCT:MO” value was 1.15. Besides, in series [4], the “log S1.0” value is reported as −0.97 mM, the “log SOCT” value was 3.24 mM and the “log S7.4” value is 2.02 mM.
For the compound `CC(C(=O)O)c1cccc(C(=O)c2ccccc2)c1` (centres unmarked) [Ketoprofen], the “log JMPMO” value in series [1] (setting [7]) is −1.18 µmol cm^−2 h^−1.
For `COc1ccc2cc(CCC(C)=O)ccc2c1` [Nabumetone], in series [1] (first procedure, 3 h collection intervals), the “log JMPMO” value is on record as −1.55. Moreover, the “log JMPMO” value in series [1] (setting [7]) is −1.53 µmol cm^−2 h^−1. Moreover, in series [1] (repeat diffusion cell experiment with 2 h collection intervals, receptor phases ≤20% saturation), the “log JMPMO” value is listed as −1.53. The “log JMHMO” value in series [2] is −1.10 µmol cm^−2 h^−1. Also, in series [3], the “log KMO:1.0” value is 2.72 and the “log KOCT:MO” value is 0.57. Besides, in series [4], the “log S1.0” value was −1.53 mM, the “log SOCT” value was 1.76 mM and the “log S7.4” value is reported as −1.12 mM.
As to `COc1ccc2cc([C@H](C)C(=O)O)ccc2c1` [Naproxen], the “log JMPMO” value in series [6] is given as −1.46 µmol cm^−2 h^−1.
With `CN1C(C(=O)Nc2ccccn2)=C(O)c2ccccc2S1(=O)=O` [Piroxicam], in series [1] (setting [7]), the “log JMPMO” value is given as −2.08 µmol cm^−2 h^−1. The “log JMHMO” value in series [2] is given as −2.40 µmol cm^−2 h^−1. Also, in series [3], the “log KMO:1.0” value is reported as 0.20 and the “log KOCT:MO” value is on record as 1.49. Moreover, in series [4], the “log S1.0” value was −0.94 mM, the “log SOCT” value is on record as 0.75 mM and the “log S7.4” value was 0.95 mM.

The record behind these values is paper PMC4190524, “The Flux of Select NSAIDs through Silicone Membranes from Mineral Oil” (Pharmaceutics, 2014).
